Test results from BindingDB's records for doi:10.1021/jm00129a003 (Abbott Laboratories, 1989).

Legend:
[1] = target: T1, Gonadotropin-releasing hormone receptor (Rattus norvegicus, UniProt P30969); test: Dissociation constant was determined in vitro using rat pituitary membranes and [125I]-leuprolide as radioligand, at concentration 3.16*10e-6 M
T1 sequence (P30969 whole entry): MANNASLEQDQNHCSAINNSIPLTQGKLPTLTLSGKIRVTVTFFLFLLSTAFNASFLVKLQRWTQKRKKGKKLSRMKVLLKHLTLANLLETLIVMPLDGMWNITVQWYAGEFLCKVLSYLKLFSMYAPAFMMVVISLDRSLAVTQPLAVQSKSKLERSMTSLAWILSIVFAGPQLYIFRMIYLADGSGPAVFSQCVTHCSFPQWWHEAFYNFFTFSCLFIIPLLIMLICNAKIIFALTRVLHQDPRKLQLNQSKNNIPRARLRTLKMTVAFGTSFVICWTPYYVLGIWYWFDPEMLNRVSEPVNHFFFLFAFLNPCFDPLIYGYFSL

[2] = target: T1, Gonadotropin-releasing hormone receptor; test: Dissociation constant was determined in vitro using rat pituitary membranes, at concentration 1.0*10e-5 M

With CC(=O)N1CCN(c2ccc(OC[C@@H]3CO[C@@](Cn4ccnc4)(c4ccc(Cl)cc4Cl)O3)cc2)CC1 [Nizoral] the Kd [1] was 221 nM and the Kd [2] was 375 nM.
